Source: US4730042A, “Compounds 1 or 3-hydroxy-4-benzyl-6-methyl-7-(4-isopropylamino-butoxy)-1,3-dihydro[3,4- C]pyridine and 2-methyl-3-(4-isopropyl-aminobutoxy)-4-(1'-morphilinomethyl)-5-hydroxyme thyl-6-benzyl pyridine, useful for treating cardiac arrhythmias” (priority 1985, dated 1988)

What was measured:
[1] = system: aconitine-induced arrhythmia; assay: Antiarrhythmic effect on the aconitine-induced arrhythmia in anesthetized rats; format: in vivo, male Sprague-Dawley rats; settings: for ED50: Rattus norvegicus, iv, read-out: Antiarrhythmic effect ED 50; for Antiarrhythmic effect, maximum effect / maximum effect compared with barucainid, in words: rat; for Antiarrhythmic effect, maximum effect: i.v., maximum relative increase in the arrhythmogenic aconitine dose; for maximum effect compared with barucainid, in words: versus barucainid
Procedure: The novel compounds have a powerful antiarrhythmic action and are useful for the therapy of cardiac arrhythmias. The pharmacological investigations to determine the antiarryhythmic action were carried out using the antiarrhythmic barucainid as a comparison.
(§1) The test animals used were male Sprague-Dawley rats weighing 180-300 g. Anesthesia was effected with 100 mg/kg of thiobutabarbital, administered intraperitoneally. To induce arrhythmias, aconitine was infused at a dosage rate of 5 μg per kg per min. The test substances were administered intravenously, directly before the beginning of the aconitine infusion. The parameter measured is the amount of aconitine which leads to the first signs of arrhythmias (disappearance of P, ventricular extrasystoles and tachycardia) in the ECG of the animals. In the case of untreated animals, the arrhythmogenic aconitine dose was 16.5±0.34 μg/kg (n=120). The dose which causes a 50% increase was determined from the linear relationship between log dose (mg/kg) of the test substances and the relative increase in the arrhythmogenic aconitine dose (Δ%).
The maximum effect achieved (Δ%) is evaluated as a further criterion of the antiarrhythmic efficacy.

[2] = Toxic changes in the ECG and therapeutic index in the rat; format: in vivo; settings: in vivo, iv, quotient of ECG-toxic dose and antiarrhythmic ED 50
Procedure: as §1
(§2) The dose of test substance which causes toxic changes in the ECG (ST depression, disappearance of P, extrasystoles) was also determined. The quotient of the ECG-toxic dose and the antiarrhythmic ED 50 was evaluated as a measure of the therapeutic index of the novel compounds.

[3] = system: ECG (ST depression, disappearance of P, extrasystoles); assay: as above; format: in vivo; settings: i.v., toxic effect in the ECG (occurrence of extrasystoles)
Procedure: as §1, §2

Cc1nc(Cc2ccccc2)c2c(c1OCCCCNC(C)C)COC2 [Barucainid, reference compound]
ED50 [1]: 1.95 mg/kg
Antiarrhythmic effect, maximum effect [1]: 105 Δ %
selectivity ratio [2]: 5.13
ECG-toxic dose [3]: 10.0 mg/kg

Cc1nc(Cc2ccccc2)c(CO)c(CN2CCOCC2)c1OCCCCNC(C)C.Cl.Cl.Cl [Example 1, 2-methyl-3-(4-isopropylaminobutoxy)-4-(1'-morpholinomethyl)-5-hydroxymethyl-6-benzylpyridine trihydrochloride]
ED50 [1]: 0.19 mg/kg
Antiarrhythmic effect, maximum effect [1]: 111 Δ %
selectivity ratio [2]: 11.3
ECG-toxic dose [3]: 2.15 mg/kg

Cc1nc(Cc2ccccc2)c2c(c1OCCCCNC(C)C)C(O)OC2.Cl.Cl (centres unmarked) [Example 2, 1-hydroxy-4-benzyl-6-methyl-7-(4-isopropylaminobutoxy)-1,3-dihydrofuro[3,4-C]pyridine dihydrochloride]
ED50 [1]: 0.468 mg/kg
Antiarrhythmic effect, maximum effect [1]: 239 Δ %
maximum effect compared with barucainid, in words [1]: superior to barucainid
selectivity ratio [2]: > 9.9
ECG-toxic dose [3]: > 4.64 mg/kg

Cc1nc(Cc2ccccc2)c2c(c1OCCCCNC(C)C)COC2O.Cl.Cl (centres unmarked) [Example 3, 3-hydroxy-4-benzyl-6-methyl-7-(4-isopropylaminobutoxy)-1,3-dihydrofuro[3,4-C]pyridine dihydrochloride]
ED50 [1]: 0.695 mg/kg
Antiarrhythmic effect, maximum effect [1]: 276 Δ %
maximum effect compared with barucainid, in words [1]: superior to barucainid
selectivity ratio [2]: 14.4
ECG-toxic dose [3]: 10 mg/kg

Cc1nc(Cc2ccc(O)cc2)c2c(c1OCCCCNC(C)C)COC2 [Example 4, 4-(p-hydroxybenzyl)-6-methyl-7-(4-isopropylaminobutoxy)-1,3-dihydrofuro[3,4-C]pyridine]
ED50 [1]: 2.69 mg/kg
Antiarrhythmic effect, maximum effect [1]: 263 Δ %
maximum effect compared with barucainid, in words [1]: superior to barucainid
selectivity ratio [2]: 17.3
ECG-toxic dose [3]: 46.4 mg/kg
